{"source": "patent US8765433B2", "about": "“Alcohol dehydrogenases (ADH) useful for fermentive production of lower alkyl alcohols” (priority 2009, dated 2014)", "assay_in_all_cases": "isobutyraldehyde reduction kinetics (A340, initial rates)", "type_in_all_cases": "biochemical", "key": {"[1]": {"target": "T1, Geobacillus sp. WCH70 ADH (GbADH), SEQ ID NO: 37 (Parageobacillus toebii, UniProt A0A6G9J337)", "T1 construct": "346 aa, begins […]) in pBADHisA, N-terminal His tag, expressed in E. coli, purified", "T1 sequence (A0A6G9J337 entry or part of it)": "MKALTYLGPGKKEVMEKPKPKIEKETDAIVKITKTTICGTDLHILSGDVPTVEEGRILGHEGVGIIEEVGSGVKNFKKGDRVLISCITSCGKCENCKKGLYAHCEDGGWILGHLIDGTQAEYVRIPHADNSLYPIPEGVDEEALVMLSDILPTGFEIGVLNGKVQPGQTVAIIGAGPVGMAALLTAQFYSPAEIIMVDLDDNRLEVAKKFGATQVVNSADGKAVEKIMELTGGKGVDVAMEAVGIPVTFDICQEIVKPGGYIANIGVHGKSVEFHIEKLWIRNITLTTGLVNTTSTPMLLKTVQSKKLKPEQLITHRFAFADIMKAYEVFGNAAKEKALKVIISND", "text": "(§1) This example describes preparation of ADH-gene constructs for over-expression/purification and measurement of enzyme activities using a time-course assay. Horse-liver ADH (HLADH; A-6128) was purchased from Sigma. Achromobacter xylosoxidans SadB (SadB), Saccharomyces cerevisiae ADH6 (ScADH6) and ADH7 (ScADH7), Entamoeba histolytica ADH1 (EhADH1), Bos Taurus Aldehyde Reductase (BtARD), Beijerinckia indica subsp. Indica ATCC 9039 (BiADH), Clostridium beijerinckii ADH (CbADH), Rana perezi ADH8 (RpADH8), Rattus norvegicus ADH1 (RnADH1), Thermus sp. ATN1 ADH (TADH), Phenylobacterium zucineum HLK1 ADH (PzADH), Methylocella silvestris BL2 ADH (MsADH), Acinetobacter baumannii AYE ADH (AbADH), Geobacillus sp. WCH70 ADH (GbADH), Vanderwaltozyma polyspora DSM 70294 ADH (VpADH), Mucor circinelloides ADH (McADH), and Rhodococcus erythropolis PR4ADH (ReADH) were the candidates for which subclones were prepared for protein expression and purification.\n(§2) As a routine practice, the crude extracts and purified proteins were assayed for butanol oxidation activity, in order to ensure that the recombinant proteins were active throughout the purification process. […] Alcohol oxidation activities were carried out in 50 mM sodium phosphate buffer at pH 8.8 and aldehyde reduction reactions were assayed in 190 mM potassium phosphate buffer at pH 7.0. Depending on the nature of reaction being carried out, the enzyme and cofactor stocks were diluted in the reaction buffers at the respective pHs. Either buffer or cell extract prepared from the proprietary E. coli strain (with no ADH plasmid) was used as the negative control for assays with purified protein and cell-free extracts, respectively.\n(§3) Kinetic constants of the ADH enzymes were calculated and compared to identify those candidate ADH enzymes with the most desirable properties for the conversion of isobutyraldehyde to isobutanol in the last step of the engineered pathway for isobutanol production. The assays for determining the kinetic constants were carried out using initial rates from the assays described above. […] The concentration of a given enzyme was such that it was conducive for the measurement of initial velocities over a 1-min time course. For each enzyme, Michaelis-Menten plots were generated with a broad range of substrate concentrations. Rough estimates of KM were obtained, based on which the assays were redesigned so as to use substrate concentrations in the range 0.5 to 10 times the KM value, to be able to obtain the appropriate kinetic constants. […] When calculating the KI for isobutanol, the same reactions were carried out in the presence of varying concentrations of isobutanol (generally 0-535 mM) in the reaction (see FIG. 7, for example). Reactions with isobutanol substrate were performed at 30° C. in 50 mM Sodium phosphate buffer, pH 8.8, containing 7.5 mM NAD. The Enzyme kinetics module (Version 1.3) of SigmaPlot 11 (Systat Software, Inc.) was used to fit data to Michaelis-Menten equations and calculate the kinetic constants. The kcat/KM is derived from the individual numbers of kcat and KM and not an experimentally determined value. The ratios of the KM, KI, and kcat/KM for each candidate enzyme as compared to the same parameter for SadB are given in Table 9.\n(§4) Seven additional candidate ADH enzymes were synthesized, expressed, and assayed according to methods such as described in Example 2. Kinetic constants obtained for the indicated ADH enzymes (Phenylobacterium zucineum HLK1 ADH (PzADH), Methylocella silvestris BL2 ADH (MsADH), Acinetobacter baumannii AYE ADH (AbADH), Geobacillus sp. WCH70 ADH (GbADH), and Mucor circinelloides ADH (McADH)) are given in Table 8. A comparison of KM, KI, and kcat/KM for each candidate enzyme as compared to the same parameter for SadB are given in Table 9 as a percentage of the values determined (Table 7) for SadB. […]"}, "[2]": {"target": "Acinetobacter baumannii AYE ADH (AbADH), SEQ ID NO: 36", "text": "as §1, §2, §3, §4"}, "[3]": {"target": "T2, Methylocella silvestris BL2 ADH (MsADH), SEQ ID NO: 35 (Methylocella silvestris, UniProt B8ELZ1)", "T2 sequence (B8ELZ1 1-345)": "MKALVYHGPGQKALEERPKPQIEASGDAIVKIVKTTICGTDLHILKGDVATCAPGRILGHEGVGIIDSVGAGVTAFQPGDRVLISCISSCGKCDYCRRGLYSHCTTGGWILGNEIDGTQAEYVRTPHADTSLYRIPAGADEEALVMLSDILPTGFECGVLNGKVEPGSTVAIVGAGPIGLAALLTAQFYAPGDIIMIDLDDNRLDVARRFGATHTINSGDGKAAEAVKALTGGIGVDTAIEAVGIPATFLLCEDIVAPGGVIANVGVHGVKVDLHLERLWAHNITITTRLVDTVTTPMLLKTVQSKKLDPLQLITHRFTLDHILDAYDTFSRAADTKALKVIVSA", "text": "as §1, §2, §3, §4"}, "[4]": {"target": "Mucor circinelloides ADH (McADH), SEQ ID NO: 39 (Mucor circinelloides, UniProt Q66UT6)", "sequence (Q66UT6 entry or part of it)": "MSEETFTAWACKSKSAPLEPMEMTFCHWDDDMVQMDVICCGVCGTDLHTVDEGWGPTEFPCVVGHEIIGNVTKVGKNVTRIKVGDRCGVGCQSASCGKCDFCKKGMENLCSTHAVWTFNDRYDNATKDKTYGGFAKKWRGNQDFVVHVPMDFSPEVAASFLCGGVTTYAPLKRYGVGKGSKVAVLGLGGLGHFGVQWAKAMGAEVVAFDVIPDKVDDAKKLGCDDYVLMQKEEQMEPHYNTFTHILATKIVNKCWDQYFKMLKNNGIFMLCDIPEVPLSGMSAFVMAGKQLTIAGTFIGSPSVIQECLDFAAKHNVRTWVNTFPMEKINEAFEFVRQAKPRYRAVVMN", "text": "as §1, §2, §3, §4"}, "[5]": {"target": "T3, Phenylobacterium zucineum HLK1 ADH (PzADH), SEQ ID NO: 34 (Phenylobacterium zucineum, UniProt B4RIA4)", "T3 sequence (B4RIA4 1-345)": "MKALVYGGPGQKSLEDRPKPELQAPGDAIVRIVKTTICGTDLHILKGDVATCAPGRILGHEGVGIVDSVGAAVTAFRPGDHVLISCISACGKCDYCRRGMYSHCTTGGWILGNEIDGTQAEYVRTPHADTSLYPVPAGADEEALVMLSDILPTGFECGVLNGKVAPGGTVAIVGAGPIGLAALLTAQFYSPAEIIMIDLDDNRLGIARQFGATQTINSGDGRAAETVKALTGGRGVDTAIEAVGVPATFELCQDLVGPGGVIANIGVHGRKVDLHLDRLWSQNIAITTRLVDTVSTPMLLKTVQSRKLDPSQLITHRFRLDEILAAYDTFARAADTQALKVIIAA", "text": "as §1, §2, §3, §4"}}}
{"compound": "CC(C)CO", "note": "[isobutanol, 2-methylpropan-1-ol]", "values": [{"measurement": "Ki", "setting": "[1]; isobutyraldehyde reduction, varying isobutanol, NADPH specific", "value": 13, "unit": "mM"}, {"measurement": "KI as a percentage of the same parameter for SadB", "setting": "[1]; relative to SadB", "value": 7, "unit": "%"}, {"measurement": "KI as a percentage of the same parameter for SadB", "setting": "[2]; relative to SadB", "value": 169, "unit": "%"}, {"measurement": "Ki", "setting": "[3]; read-out: KI (Isobutanol)", "value": 19, "unit": "mM"}, {"measurement": "KI as a percentage of the same parameter for SadB", "setting": "[3]; relative to SadB", "value": 11, "unit": "%"}, {"measurement": "Ki", "setting": "[4]; read-out: KI (Isobutanol)", "value": 79, "unit": "mM"}, {"measurement": "KI as a percentage of the same parameter for SadB", "setting": "[4]; relative to SadB", "value": 44, "unit": "%"}, {"measurement": "Ki", "setting": "[5]; read-out: KI (Isobutanol)", "value": 13, "unit": "mM"}, {"measurement": "KI as a percentage of the same parameter for SadB", "setting": "[5]; relative to SadB", "value": 7, "unit": "%"}]}
{"compound": "CC(C)C=O", "note": "[isobutyraldehyde]", "values": [{"measurement": "KM as a percentage of the same parameter for SadB", "setting": "[1]; relative to SadB", "value": 44, "unit": "%"}, {"measurement": "kcat as a percentage of the same parameter for SadB", "setting": "[1]; relative to SadB", "value": 29, "unit": "%"}, {"measurement": "kcat/KM as a percentage of the same parameter for SadB", "setting": "[1]; relative to SadB", "value": 69, "unit": "%"}, {"measurement": "Km", "setting": "[2]; 30° C., pH 7.0, NADH specific, read-out: KM (Isobutanal)", "value": 10, "unit": "mM"}, {"measurement": "kcat", "setting": "[2]; isobutyraldehyde reduction, 30° C., pH 7.0, NADH specific", "value": 99, "unit": "s⁻¹"}, {"measurement": "KM as a percentage of the same parameter for SadB", "setting": "[2]; relative to SadB", "value": 1020, "unit": "%"}, {"measurement": "kcat as a percentage of the same parameter for SadB", "setting": "[2]; relative to SadB", "value": 91, "unit": "%"}, {"measurement": "kcat/KM as a percentage of the same parameter for SadB", "setting": "[2]; relative to SadB", "value": 9, "unit": "%"}, {"measurement": "KM as a percentage of the same parameter for SadB", "setting": "[3]; relative to SadB", "value": 6, "unit": "%"}, {"measurement": "kcat as a percentage of the same parameter for SadB", "setting": "[3]; relative to SadB", "value": 30, "unit": "%"}, {"measurement": "kcat/KM as a percentage of the same parameter for SadB", "setting": "[3]; relative to SadB", "value": 532, "unit": "%"}, {"measurement": "KM as a percentage of the same parameter for SadB", "setting": "[4]; relative to SadB", "value": 3000, "unit": "%"}, {"measurement": "kcat as a percentage of the same parameter for SadB", "setting": "[4]; relative to SadB", "value": 138, "unit": "%"}, {"measurement": "kcat/KM as a percentage of the same parameter for SadB", "setting": "[4]; relative to SadB", "value": 5, "unit": "%"}, {"measurement": "KM as a percentage of the same parameter for SadB", "setting": "[5]; relative to SadB", "value": 10, "unit": "%"}, {"measurement": "kcat as a percentage of the same parameter for SadB", "setting": "[5]; relative to SadB", "value": 28, "unit": "%"}, {"measurement": "kcat/KM as a percentage of the same parameter for SadB", "setting": "[5]; relative to SadB", "value": 243, "unit": "%"}]}
